In patent US11351178B2, “Selective HDAC6 inhibitors” (ITALFARMACO S.P.A., priority 2017, dated 2022):

Key:
HDAC11 = molecular target: T1, HDAC11 (Homo sapiens, UniProt Q96DB2); experiment: Enzymatic test HDAC11; assay type: biochemical; conditions: Table 3
T1 construct: purchased BML SE560
T1 sequence (Q96DB2 1-347): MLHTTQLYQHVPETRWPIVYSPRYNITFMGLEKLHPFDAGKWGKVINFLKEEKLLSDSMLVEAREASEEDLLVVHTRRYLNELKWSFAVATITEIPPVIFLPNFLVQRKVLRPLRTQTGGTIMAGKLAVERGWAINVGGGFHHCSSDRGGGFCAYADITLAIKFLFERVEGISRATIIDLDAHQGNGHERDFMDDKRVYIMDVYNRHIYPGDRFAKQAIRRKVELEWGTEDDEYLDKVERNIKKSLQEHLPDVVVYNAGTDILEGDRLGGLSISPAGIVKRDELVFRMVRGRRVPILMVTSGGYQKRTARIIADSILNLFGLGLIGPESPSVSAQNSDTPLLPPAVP
Protocol: (§1) After a period of incubation at 30° C. (incubation times vary for different isoforms and are shown in table 1) 25 μL of solution containing the substrate were added. As substrate, FLUOR DE LYS® deacetylase substrate (Enzo Life Sciences, cat #BML-K1104, FdL), FLUOR DE LYS®-Green substrate (Enzo Life Sciences, cat #BML-K1572 FdL_G) and trifluoroacetyl-L-lysine (Tfal)-2× concentrated solution in 25 mM Tris-HCl, pH 8, 130 mM NaCl 0.05% Tween-20 10% glycerol) were used. Following a reaction period at 30° C.

HDAC7 = molecular target: T2, HDAC7 (Homo sapiens, UniProt Q8WUI4); experiment: Enzymatic test HDAC7; assay type: biochemical; conditions: Table 3
T2 construct: purchased BPS 50007
T2 sequence (Q8WUI4 518-952 limits assumed): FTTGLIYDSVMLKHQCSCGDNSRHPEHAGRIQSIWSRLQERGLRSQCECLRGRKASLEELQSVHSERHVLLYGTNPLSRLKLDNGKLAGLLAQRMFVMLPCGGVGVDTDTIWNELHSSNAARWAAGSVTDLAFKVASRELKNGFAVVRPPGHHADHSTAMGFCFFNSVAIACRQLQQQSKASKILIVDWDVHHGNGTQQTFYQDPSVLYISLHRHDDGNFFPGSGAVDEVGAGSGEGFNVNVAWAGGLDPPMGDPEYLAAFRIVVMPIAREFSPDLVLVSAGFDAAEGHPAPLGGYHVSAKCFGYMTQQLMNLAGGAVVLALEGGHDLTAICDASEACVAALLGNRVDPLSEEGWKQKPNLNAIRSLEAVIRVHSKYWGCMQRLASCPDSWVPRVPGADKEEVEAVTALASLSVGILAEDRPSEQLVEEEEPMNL
Protocol: as §1

HDAC2 = molecular target: T3, HDAC2 (Homo sapiens, UniProt Q92769); experiment: Enzymatic test HDAC2; assay type: biochemical; conditions: Table 3
T3 construct: purchased BPS 50002
T3 sequence (Q92769 whole entry): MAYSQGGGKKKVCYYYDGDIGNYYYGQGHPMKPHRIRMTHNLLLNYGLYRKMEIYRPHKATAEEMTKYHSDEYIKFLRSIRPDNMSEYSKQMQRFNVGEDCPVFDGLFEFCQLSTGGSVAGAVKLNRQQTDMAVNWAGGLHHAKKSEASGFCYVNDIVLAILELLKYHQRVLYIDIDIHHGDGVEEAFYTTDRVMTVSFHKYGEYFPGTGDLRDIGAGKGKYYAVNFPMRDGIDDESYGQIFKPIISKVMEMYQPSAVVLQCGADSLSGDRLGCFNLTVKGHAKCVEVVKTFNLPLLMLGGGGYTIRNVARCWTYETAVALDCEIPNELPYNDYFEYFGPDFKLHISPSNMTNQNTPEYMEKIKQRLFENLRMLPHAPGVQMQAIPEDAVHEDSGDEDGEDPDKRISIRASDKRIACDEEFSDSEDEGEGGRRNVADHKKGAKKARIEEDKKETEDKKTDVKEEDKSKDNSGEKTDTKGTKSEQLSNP

[1] = tested on: regulatory T cell (Treg, CD4+CD25+) suppression activity; experiment: T CD4 lymphocyte proliferation mediated by mouse regulatory T cells suppression assay; assay type: cell-based
Protocol: To evaluate the ability of the molecules under this patent to increase regulatory T cell (Treg, CD4^+CD25^+) suppression activity a T-cell (responder T cells, Teff) proliferation suppression assay was used. Treg cells at different concentrations were cultured with Teff cells (CD4^+CD25^−) in the presence of proliferative stimuli. T cells need of two stimuli to proliferate: the first given by the recognition of antigen associated with MHC by T cell receptor (TCR) and the second one derived from co-stimulatory molecules such as CD28. In the absence of a specific antigen, TCR activation can take place with an antibody recognizing one of the composing subunits, CD3ε. In this assay, anti-CD3ε monoclonal antibody and CD4 T cell depleted splenocytes were used as activator stimuli. Therefore, the ability to reduce Teff cells proliferation by Tregs in the presence or absence of HDAC6 inhibitors was assessed.
Treg and Teff cells were separated using the Treg isolation kit based on magnetic beads separation technique (Miltenyi Biotec) through an initial negative selection and a final positive selection process.
Single cell suspension was obtained from spleen of C57BL/6 mice using a 70 μm strainer.
Cell suspension was treated with ACK buffer to lyse red blood cells and then centrifuged for 5 minutes at 300×g. After centrifugation, the cells were resuspended in PBS (Phosphate Buffered Saline, Gibco) and counted. Subsequently, splenocytes were resuspended in a buffer consisting of PBS, 0.5% BSA and 2 mM EDTA.
To proceed with the first step of Treg separation, CD4 negative cells were indirectly magnetically labeled with a cocktail of biotin-conjugated antibodies against CD8a, CD11b, CD45R, CD49b, Ter-119 and Anti-Biotin MicroBeads CD4+ cells were thus obtained by negative selection as flow-through of a magnetic MACS column.
Cells bound to microbeads were eluted and conserved for their use as antigen presenting cells (APC) in the proliferation assay.
In the second step of Treg purification, pre-enriched CD4+ cells were labelled with an R-phycoerythrin (PE)-conjugated anti-CD25 antibody that preferentially binds to Treg cells and magnetic beads coupled with an anti PE antibody. The cell suspension was then loaded on a column. The Teff cells pass through the column without binding (negative selection), while beads-bound Treg cells adhere through the magnetic beads (positive selection). Treg cells were then eluted from the column by buffer flow using a plunger. Treg and Teff cell purification is summarized in FIG. 6. • CD4− cells from first positive selection as APC • Treg CD4+ CD25+ as suppressor cells • Teff CD4+ CD25− as responder/proliferating cells
CD4^− cells were treated with mitomycin C (50 μg/ml, Sigma) for 30 min at 37° C. to prevent their proliferation They were then resuspended at a concentration of 4.0×10^5/50 μl in complete medium (RPMI, FBS10%, penicillin/streptomycin 1×, 50 μM beta mercaptoethanol). Teffs were labeled with carboxy fluorescein succinimidyl ester (CFSE) at a concentration of 2 μM in PBS at 37° C., and after 10 minutes incubation, the reaction was blocked with a 10% FBS PBS solution. CFSE labelling allows covalent modification of Teff cell to analyse their proliferation by fluorescence dilution. The labelled Teffs were then centrifuged and resuspended at the final concentration of 5.0×10^4/50 μl in complete medium. Finally, the Tregs obtained by purification were diluted to the final concentration of 5.0×10^4/50 μl in complete medium.
Then a co-culture of Teff (5.0×10^4), T CD4^− (4.0×10^5) was prepared and Treg cells in different ratios (1:1, 1:2, 1:4, 1:8 ratio Teff to Treg cells) were added thereto. The test compounds at different concentrations or DMSO vehicle were added to the cell suspension. Finally, an anti-CD3ε monoclonal antibody (Miltenyi Biotec) was added at a concentration of 1 μg/ml. Cells were plated in flat bottom 96-well plates and each condition was set up in a technical duplicate. […]

Compound: COc1ccc(C(=O)N[C@@H](Cc2cscn2)c2nc(Cc3ccc(C(=O)NO)cc3)no2)cc1OC [comp. 1, (S)—N-(1-(3-(4-(hydroxycarbamoyl)benzyl)-1,2,4-oxadiazol-5-yl)-2-(thiazol-4-yl)ethyl)-3,4-dimethoxybenzamide]
- IC50 (HDAC11): 2680 nM
- IC50 (HDAC7): 3530 nM
- IC50 (HDAC2): 6660 nM

Compound: Cn1c(Sc2c(F)cc(C(=O)NO)cc2F)nnc1-c1cccc2ccccc12 [comp. 2, 3,5-difluoro-N-hydroxy-4-((4-methyl-5-(naphthalen-1-yl)-4H-1,2,4-triazol-3-yl)thio)benzamide]
- IC50 (HDAC11): 8050 nM
- IC50 (HDAC7): 1090 nM
- IC50 (HDAC2): > 30000 nM

Compound: O=C(NO)c1cc(F)c(Cn2nnc(-c3ccccn3)n2)c(F)c1 [comp. 6, 3,5-difluoro-N-hydroxy-4-((5-(pyridin-2-yl)-2H-tetrazol-2-yl)methyl)benzamide]
- RS (relative T-reg suppression, AUC drug/AUC control) ([1]; concentration 1 μM): 1.7
- IC50 (HDAC11): 5170 nM
- IC50 (HDAC7): 750 nM
- IC50 (HDAC2): 27500 nM

Compound: Cn1c(Sc2ccc(C(=O)NO)cc2)nnc1-c1cccs1 [comp. 10, N-hydroxy-4-((4-methyl-5-(thiophen-2-yl)-4H-1,2,4-triazol-3-yl)thio)benzamide]
- IC50 (HDAC11): 981 nM
- IC50 (HDAC7): 817 nM
- IC50 (HDAC2): 4450 nM

Compound: O=C(NO)c1cc(F)c(Cn2nnnc2-c2ccccn2)c(F)c1 [comp. 13, 3,5-difluoro-N-hydroxy-4-((5-(pyridin-2-yl)-1H-tetrazol-1-yl)methyl)benzamide]
- RS (relative T-reg suppression, AUC drug/AUC control) ([1]; concentration 1 μM): 1.9
- IC50 (HDAC11): 1470 nM
- IC50 (HDAC7): 623 nM
- IC50 (HDAC2): 11400 nM

Compound: O=C(NO)c1cc(F)c(Cn2nnnc2-c2cccs2)c(F)c1 [comp. 15, 3,5-difluoro-N-hydroxy-4-((5-(thiophen-2-yl)-1H-tetrazol-1-yl)methyl)benzamide]
- RS (relative T-reg suppression, AUC drug/AUC control) ([1]; concentration 1 μM): 3.0
- IC50 (HDAC11): 4590 nM
- IC50 (HDAC2): 8800 nM

Compound: Cn1c(Sc2c(F)cc(C(=O)NO)cc2F)nnc1-c1cccs1 [comp. 17, 3,5-difluoro-N-hydroxy-4-((4-methyl-5-(thiophen-2-yl)-4H-1,2,4-triazol-3-yl)thio)benzamide]
- IC50 (HDAC11): 2290 nM
- IC50 (HDAC7): 550 nM
- IC50 (HDAC2): 16000 nM

Compound: O=C(NO)c1cc(F)c(Cn2nnc(-c3ccco3)n2)c(F)c1 [comp. 19, 3,5-difluoro-4-((5-(furan-2-yl)-2H-tetrazol-2-yl)methyl)-N-hydroxybenzamide]
- RS (relative T-reg suppression, AUC drug/AUC control) ([1]; concentration 1 μM): 2.3
- IC50 (HDAC11): 798 nM
- IC50 (HDAC7): 1020 nM
- IC50 (HDAC2): 9480 nM

Compound: O=C(NO)c1ccc(Cn2nnc(-c3ccc(C(F)(F)F)cc3)n2)cc1 [comp. 23, 4-[[5-[4-(trifluoromethyl)phenyl]tetrazol-2-yl]methyl]benzenecarbohydroxamic acid]
- IC50 (HDAC11): 486 nM
- IC50 (HDAC7): 6670 nM
- IC50 (HDAC2): 2030 nM

Compound: Nn1c(Sc2ccc(C(=O)NO)cc2)nnc1-c1ccc(OC(F)F)cc1 [comp. 28, 4-[[4-amino-5-[4-(difluoromethoxy)phenyl]-1,2,4-triazol-3-yl]sulfanyl]benzenecarbohydroxamic acid]
- IC50 (HDAC11): 568 nM
- IC50 (HDAC7): 1030 nM
- IC50 (HDAC2): 1570 nM

Compound: O=C(NO)c1ccc(Cn2nnc(-c3ccccc3F)n2)cc1 [comp. 33, 4-[[5-(2-fluorophenyl)tetrazol-2-yl]methyl]benzenecarbohydroxamic acid]
- RS (relative T-reg suppression, AUC drug/AUC control) ([1]; concentration 0.10 μM): 4.6
- IC50 (HDAC11): 225 nM
- IC50 (HDAC7): 608 nM
- IC50 (HDAC2): 810 nM

Compound: O=C(NO)c1ccc(Cn2nnc(-c3cccs3)n2)cc1 [comp. 50, 4-[[5-(2-thienyl)tetrazol-2-yl]methyl]benzenecarbohydroxamic acid]
- IC50 (HDAC11): 245 nM
- IC50 (HDAC7): 611 nM
- IC50 (HDAC2): 958 nM

Compound: O=C(NO)c1ccc(Cc2nnc(-c3ccc(F)cc3F)o2)cc1 [comp. 58, 4-((5-(2,4-difluorophenyl)-1,3,4-oxadiazol-2-yl)methyl)-N-hydroxybenzamide]
- IC50 (HDAC11): 282 nM
- IC50 (HDAC7): 1510 nM
- IC50 (HDAC2): 1750 nM

Compound: CN(C)S(=O)(=O)c1cccc(-c2nnn(Cc3ccc(C(=O)NO)cc3)n2)c1 [comp. 59, 4-[[5-[3-(dimethylsulfamoyl)phenyl]tetrazol-2-yl]methyl]benzenecarbohydroxamic acid]
- RS (relative T-reg suppression, AUC drug/AUC control) ([1]; concentration 0.5 μM): 4.8
- IC50 (HDAC11): 515 nM
- IC50 (HDAC7): 820 nM
- IC50 (HDAC2): 2320 nM

Compound: CCN(CC)S(=O)(=O)c1cccc(-c2nnc(Sc3ccc(C(=O)NO)cc3)n2N)c1 [comp. 61, 4-[[4-amino-5-[3-(diethylsulfamoyl)phenyl]-1,2,4-triazol-3-yl]sulfanyl]benzenecarbohydroxamic acid]
- RS (relative T-reg suppression, AUC drug/AUC control) ([1]; concentration 1 μM): 1.1
- IC50 (HDAC11): 904 nM
- IC50 (HDAC7): 529 nM
- IC50 (HDAC2): 6910 nM

Compound: O=C(NO)c1cc(F)c(Cn2nnc(-c3cccs3)n2)c(F)c1 [comp. 65, 3,5-difluoro-4-[[5-(2-thienyl)tetrazol-2-yl]methyl]benzenecarbohydroxamic acid]
- RS (relative T-reg suppression, AUC drug/AUC control) ([1]; concentration 1 μM): 4.4
- IC50 (HDAC11): 975 nM
- IC50 (HDAC7): 1080 nM
- IC50 (HDAC2): 17700 nM

Compound: CN(C)c1cccc(-c2nnc(Sc3c(F)cc(C(=O)NO)cc3F)n2C)c1 [comp. 80, 4-[[5-[3-(dimethylamino)phenyl]-4-methyl-1,2,4-triazol-3-yl]sulfanyl]-3,5-difluoro-benzenecarbohydroxamic acid]
- IC50 (HDAC11): 2820 nM
- IC50 (HDAC7): 764 nM
- IC50 (HDAC2): 13800 nM

Compound: Cn1c(Sc2c(F)cc(C(=O)NO)cc2F)nnc1C(c1ccccc1)c1ccccc1 [comp. 98, 4-[(5-benzhydryl-4-methyl-1,2,4-triazol-3-yl)sulfanyl]-3,5-difluoro-benzenecarbohydroxamic acid]
- IC50 (HDAC11): 2090 nM
- IC50 (HDAC7): 1990 nM
- IC50 (HDAC2): 4240 nM
